Laboratory results reported in ChEMBL document CHEMBL5512654, “Discovery of novel Thymol-TPP antibiotics that eradicate MRSA persisters” (Eur J Med Chem, 2024).
Values after ≈ are worked out from the molar mass of the structure shown. Active and inactive are the calls of the source. No cut-off for these calls is given here.

Legend:
Pseudomonas aeruginosa [1] = test: Antibacterial activity against Pseudomonas aeruginosa ATCC 27853 assessed as inhibition of bacterial growth measured after 18 hrs by microplate reader; format: functional
Pseudomonas aeruginosa [2] = test: Antibacterial activity against Pseudomonas aeruginosa 535 assessed as inhibition of bacterial growth measured after 18 hrs by microplate reader; format: functional
Staphylococcus aureus [3] = test: Antibacterial activity against methicillin-resistant Staphylococcus aureus USA 300 assessed as inhibition of bacterial growth measured after 18 hrs by microplate reader; format: functional; conditions: read-out: MIC100
Staphylococcus aureus [4] = test: Antibacterial activity against Staphylococcus aureus ATCC 43300 assessed as inhibition of bacterial growth measured after 18 hrs by microplate reader; format: functional; conditions: read-out: MIC100
Staphylococcus aureus [5] = test: Antibacterial activity against methicillin-resistant Staphylococcus aureus USA 3390 assessed as inhibition of bacterial growth measured after 18 hrs by microplate reader; format: functional; conditions: read-out: MIC100
Staphylococcus aureus [6] = test: Bactericidal activity against methicillin-resistant Staphylococcus aureus USA 3390 assessed as reduction in CFU at 4 to 8 times of MIC concentration measured after 24 hrs by time-kill kinetics assay; format: functional, organism-based
Staphylococcus aureus [7] = test: Antibacterial activity against methicillin-resistant Staphylococcus aureus USA 3390 assessed as resistance development measured after 30 generations; format: functional, organism-based
Acinetobacter baumannii [8] = test: Antibacterial activity against Acinetobacter baumannii ATCC 1318 assessed as inhibition of bacterial growth measured after 18 hrs by microplate reader; format: functional
Klebsiella pneumoniae [9] = test: Antibacterial activity against Klebsiella pneumonia ATCC 700603 assessed as inhibition of bacterial growth measured after 18 hrs by microplate reader; format: functional
Acinetobacter baumannii [10] = test: Antibacterial activity against Acinetobacter baumannii ATCC 19606 assessed as inhibition of bacterial growth measured after 18 hrs by microplate reader; format: functional
Klebsiella pneumoniae [11] = test: Antibacterial activity against Klebsiella pneumonia 3026 assessed as inhibition of bacterial growth measured after 18 hrs by microplate reader; format: functional
Staphylococcus aureus [12] = test: Bactericidal activity against methicillin-resistant Staphylococcus aureus USA 3390 assessed as reduction in CFU at 1 times of MIC concentration measured for short time by time-kill kinetics assay; format: functional, organism-based
Staphylococcus aureus [13] = test: Bactericidal activity against methicillin-resistant Staphylococcus aureus USA 3390 assessed as reduction in CFU at 4 times of MIC concentration measured upto 1 hrs by time-kill kinetics assay; format: functional
Cell membrane [14] = test: Induction of cell membrane depolarization in methicillin-resistant Staphylococcus aureus USA 3390 assessed as increase in fluorescence intensity at 1 to 8 times of MIC concentration measured upto 60 mins by DiSC3-5 dye based fluorescence analysis; format: cell membranes
Cell membrane [15] = test: Induction of plasma membrane damage in methicillin-resistant Staphylococcus aureus USA 3390 at logarithmic growth phase at 4 times of MIC measured after 1 hr by Scanning electron micrographic analysis; format: cell membranes
Staphylococcus aureus [16] = test: Bactericidal activity against methicillin-resistant Staphylococcus aureus USA 3390 assessed as reduction in CFU at 4 times of MIC concentration measured after 24 hrs by time-kill kinetics assay; format: functional, organism-based
Cell membrane [17] = test: Induction of cell membrane damage in methicillin-resistant Staphylococcus aureus USA 3390 assessed as increase in fluorescence intensity at 1 to 8 times of MIC concentration measured upto 120 mins by SYTOX green assay relative to control; format: cell membranes
Staphylococcus aureus [18] = test: Antibacterial activity against methicillin-resistant Staphylococcus aureus USA 3390 assessed as eradication of persistence by measuring rapid killing effect 8 times of MIC concentration measured upto 7 hrs; format: functional, organism-based
Cell membrane [19] = test: Induction of cell membrane permeability in methicillin-resistant Staphylococcus aureus USA 3390 persisters assessed as increase in leakage (DNA) of 260 nm absorbing material at 1 to 8 times of MIC measured upto 5 hrs; format: cell membranes
Staphylococcus aureus [20] = test: Bactericidal activity against methicillin-resistant Staphylococcus aureus USA 3390 assessed as reduction in CFU at 2 times of MIC concentration measured after 24 hrs by time-kill kinetics assay; format: functional, organism-based
Staphylococcus aureus [21] = test: Antibacterial activity against methicillin-resistant Staphylococcus aureus USA 3390 assessed as eradication of persistence by measuring rapid killing effect 4 times of MIC concentration relative to control; format: functional
Escherichia coli [22] = test: Antibacterial activity against Escherichia coli 53328 assessed as inhibition of bacterial growth measured after 18 hrs by microplate reader; format: functional; conditions: read-out: MIC100
Staphylococcus aureus [23] = test: Induction of cell membrane permeability in methicillin-resistant Staphylococcus aureus USA 3390 assessed as increase in leakage of 260 nm absorbing material at 1 to 8 times of MIC; format: functional, organism-based; conditions: time <= 6.0 hrs, TDE = time-dependent effect
Cell membrane [24] = test: Induction of cell membrane damage in methicillin-resistant Staphylococcus aureus USA 3390 assessed as rough/shrunken and wrinkled surface at logarithmic growth phase at 4 times of MIC measured after 1 hr by Scanning electron micrographic analysis; format: cell membranes
Staphylococcus aureus [25] = test: Bactericidal activity against methicillin-resistant Staphylococcus aureus USA 3390 assessed as reduction in CFU at 1 times of MIC concentration measured after 1 hrs by time-kill kinetics assay; format: functional, organism-based
Staphylococcus aureus [26] = test: Drug resistance, ratio of MIC for methicillin-resistant Staphylococcus aureus USA 3390 after […] exposure to MIC for methicillin-resistant Staphylococcus aureus USA 3390 after first exposure; format: functional
[27] = Cytotoxicity against human L02 cells incubated for 72 hrs by MTT dye reduction assay; format: toxicity, cell-based
[28] = Toxicity in mouse infected with bioluminescent Staphylococcus aureus Xen29 assessed as change in body weight at 8 mg/kg, sc treated 16, 24, 36, 48, […] and 72 hrs post-infection measured after 84 hrs; format: organism-based; conditions: in vivo
Cell membrane [29] = test: Induction of cell membrane permeability of methicillin-resistant Staphylococcus aureus USA 3390 persisters assessed as increase in fluorescence intensity at 4 to 8 ug/ml measured at 30 mins by SYTOX green assay relative to control; format: cell membranes; conditions: dose 4-8 µg/ml
Staphylococcus aureus [30] = test: In vivo antibacterial efficacy in bioluminescent Staphylococcus aureus Xen29 infected in mouse topical infection model assessed as reduction in number of colonies at 8 mg/kg, sc treated 16, 24, 36, 48, […] hrs post-infection measured after 84 hrs relative to control; format: functional
Staphylococcus aureus [31] = test: Bactericidal activity against methicillin-resistant Staphylococcus aureus USA 3390 assessed as reduction in CFU at 2 times of MIC concentration measured upto 4 hrs by time-kill kinetics assay; format: functional
Cell membrane [32] = test: Induction of cell membrane damage in methicillin-resistant Staphylococcus aureus USA 3390 assessed as increase in fluorescence intensity at 1 to 8 times of MIC concentration measured at 5 mins by SYTOX green assay; format: cell membranes
Staphylococcus aureus [33] = test: Antibacterial activity against methicillin-resistant Staphylococcus aureus USA 3390 assessed as eradication of persistence by measuring rapid killing effect 4 times of MIC concentration measured upto 7 hrs; format: functional, organism-based
Staphylococcus aureus [34] = test: Induction of cell membrane permeability in methicillin-resistant Staphylococcus aureus USA 3390 assessed as increase in leakage of 260 nm absorbing material at measured upto 6 hrs; format: functional, organism-based
Staphylococcus aureus [35] = test: Bactericidal activity against methicillin-resistant Staphylococcus aureus USA 3390 assessed as reduction in CFU at 1 times of MIC concentration measured after 24 hrs by time-kill kinetics assay; format: functional, organism-based
Cell membrane [36] = test: Induction of cell membrane depolarization of methicillin-resistant Staphylococcus aureus USA 3390 persisters assessed as increase in fluorescence intensity at 4 to 8 ug/ml measured at 10 mins by SYTOX green assay relative to control; format: cell membranes; conditions: dose 4-8 µg/ml
Staphylococcus aureus [37] = test: Induction of cell membrane permeability in methicillin-resistant Staphylococcus aureus USA 3390 assessed as increase absorption in leakage of 260 nm absorbing material at 1 to 8 times of MIC measured at 4 hrs; format: functional, organism-based
Staphylococcus aureus [38] = test: In vivo antibacterial efficacy in bioluminescent Staphylococcus aureus Xen29 infected in mouse topical infection model assessed as wound scabbing at 8 mg/kg, sc treated 16, 24, 36, 48, […] hrs post-infection measured after 84 hrs; format: functional, organism-based
Escherichia coli [39] = test: Antibacterial activity against Escherichia coli ATCC 25922 assessed as inhibition of bacterial growth measured after 18 hrs by microplate reader; format: functional; conditions: read-out: MIC100
Staphylococcus aureus [40] = test: Antibacterial activity against methicillin-resistant Staphylococcus aureus USA 3390 assessed as eradication of persistence by measuring rapid killing effect 8 times of MIC concentration relative to control; format: functional
Staphylococcus aureus [41] = test: In vivo antibacterial efficacy in bioluminescent Staphylococcus aureus Xen29 infected in mouse topical infection model assessed as decrease in fluorescence intensity at 8 mg/kg, sc treated 16, 24, 36, 48, […] hrs post-infection measured after 84 hrs; format: functional, organism-based

Compound: O=C(O)c1cn(C2CC2)c2cc(N3CCNCC3)c(F)cc2c1=O [CIPROFLOXACIN]
- MIC (Pseudomonas aeruginosa [1]; read-out: MIC): 1 µg/mL (≈ 3.02 µM)
- MIC (Pseudomonas aeruginosa [2]; read-out: MIC): 1 µg/mL (≈ 3.02 µM)
- MIC (Staphylococcus aureus [3]): 1 µg/mL (≈ 3.02 µM)
- MIC (Staphylococcus aureus [4]): 2 µg/mL (≈ 6.04 µM)
- MIC (Staphylococcus aureus [5]): 1 µg/mL (≈ 3.02 µM)
- Activity (Staphylococcus aureus [6]): Active
- Activity (Staphylococcus aureus [7]): Active
- MIC (Acinetobacter baumannii [8]; read-out: MIC): 1 µg/mL (≈ 3.02 µM)
- MIC (Klebsiella pneumoniae [9]; read-out: MIC): 0.12 µg/mL (≈ 0.362 µM)
- MIC (Acinetobacter baumannii [10]; read-out: MIC): 0.5 µg/mL (≈ 1.51 µM)
- MIC (Klebsiella pneumoniae [11]; read-out: MIC): 0.06 µg/mL (≈ 0.181 µM)
- Activity (Staphylococcus aureus [12]): Active

Compound: Cc1cc(OC(=O)CCCCC[P+](c2ccccc2)(c2ccccc2)c2ccccc2)c(C(C)C)cc1-c1ccccc1.[Br-]
- Activity (Staphylococcus aureus [13]): >=2 log10CFU/ml
- Activity (Cell membrane [14]): Active
- Activity (Cell membrane [15]): Active
- Activity (Staphylococcus aureus [16]): Active
- Activity (Cell membrane [17]): Active
- MIC (Pseudomonas aeruginosa [1]; read-out: MIC100): 32 µg/mL
- MIC (Pseudomonas aeruginosa [2]; read-out: MIC100): 64 µg/mL
- Activity (Staphylococcus aureus [18]): Active
- Activity (Cell membrane [19]): Active
- Activity (Staphylococcus aureus [20]): inactive
- Activity (Staphylococcus aureus [21]): 99.99%
- MIC (Escherichia coli [22]): 8 µg/mL
- Activity (Staphylococcus aureus [23]): Tde
- Activity (Cell membrane [24]): Active
- Activity (Staphylococcus aureus [25]): Active
- Ratio (Staphylococcus aureus [26]): 4
- IC50 at 72 h [27]: 34.3 µg/mL
- Activity [28]: Non-Toxic
- Activity (Cell membrane [29]): Active
- Activity (Staphylococcus aureus [6]): Active
- fold change (FC) (Staphylococcus aureus [30]): 10
- Activity (Staphylococcus aureus [31]): >=2 log10CFU/ml
- Activity (Cell membrane [32]): Active
- Activity (Staphylococcus aureus [33]): Active
- Activity (Staphylococcus aureus [34]): Dose-Dependent Effect
- MIC (Acinetobacter baumannii [8]; read-out: MIC100): 8 µg/mL
- Activity (Staphylococcus aureus [35]): Active
- Activity (Cell membrane [36]): Active
- MIC (Klebsiella pneumoniae [9]; read-out: MIC100): 8 µg/mL
- Activity (Staphylococcus aureus [37]): Active
- Activity (Staphylococcus aureus [38]): Active
- MIC (Acinetobacter baumannii [10]; read-out: MIC100): 8 µg/mL
- MIC (Escherichia coli [39]): 8 µg/mL
- MIC (Klebsiella pneumoniae [11]; read-out: MIC100): 16 µg/mL
- Activity (Staphylococcus aureus [12]): Active
- Activity (Staphylococcus aureus [40]): 99.999%
- Activity (Staphylococcus aureus [41]): Active
